This is an account of results in patent publication US11007273B2, “Prochelators as targeted prodrugs for prostate cancer and methods of making and using same” (Duke University, priority 2017, dated 2021).

In data set [1] the target is T1, GGT (Homo sapiens, UniProt P19440). Briefly: Competition experiments vs. γE-pNA for GGT. The data set is classed as biochemical. The following applies: vs E-pNA; PBS, pH 7.4, 1 mM GlyGly. The protocol: Competition experiments vs. γE-pNA for GGT: To perform the inhibition study, a serial dilution of γE-pNA was performed ranging from 1 mM to 3 μM in PBS with 1 mM Gly-Gly (dilution factor=0.5; pH 7.4; 10% DMSO; 100 μL) using a clear, flat bottom 96 well plate. GGT binding molecules, as indicated, were added to separate sets of triplicate wells to reach a final concentration of 10 and 100 μM. Before the addition of enzyme, the plate was cooled to 4° C. for 15 min. To initiate the assay, 10 μL of 50 U/L GGT was added to each well and an initial absorbance scan was performed. Subsequent scans were performed every 10 min for ˜2 h. In between each scan, the plates were stored at 37° C. in a humidified incubator to reduce solvent evaporation. The experiment was repeated in triplicate.
To probe the reactivity of Glu-DTC in comparison to the enzyme's natural substrate GSH, competition experiments were conducted against the colorimetric substrate L-glutamic acid γ-(p-nitroanilide) [E-pNA]. The colorimetric assay involves monitoring p-nitroaniline release by absorbance at 405 nm upon reaction of the probe substrate E-pNA with GGT in the presence of an inhibiting substrate, either Glu-DTC (FIG. 15A) or GSH (FIG. 15C).

Data set [2] deals with 22Rv1 cells. Briefly: Glu-DTC cleavage in cell culture, 22Rv1. The class given is cell-based, human. The following applies: 100 μM. Here is the method: (§1) Glu-DTC cleavage in cell culture: 22Rv1 and PWR-1E cell lines were plated into a 24 well plate (2×10^5 cells/well) with their respective growth media and allowed to adhere overnight. The following day, the growth media was removed, and each cell line was washed with PBS. 2 mL of 100 μM Glu-DTC in serum free media along with 1 mM Gly-Gly was added to the cells. One batch of 22Rv1 were treated with 2 mM Acivicin, a GGT inhibitor, along with Glu-DTC and Gly-Gly. 100 μL aliquots were taken at various time points over 72 h. Each aliquot was analyzed via HPLC to generate chromatographs of the progress of Glu-DTC digestion. Caffeine was added as reference and the ratio of Glu-DTC peak area with respect to caffeine was plotted as percentage considering initial Glu-DTC level as 100%.

Data set [3] addresses T1, GGT. The data set is described as follows: Copper-calcein competition assay with GGT exposure. The data set is classed as biochemical. The following applies: 20 U/L GGT, 1 mM Gly-Gly, 12.5 μM, 37° C. Here is the method: Plots at different timepoint of GGT exposure in accordance with one embodiment of the present disclosure. […] Solutions contained 1 μM CuSO4, 1 μM calcein, 20 U/L of GGT enzyme, and 12.5 μM of either Glu-DTC (grey) or DTC (black) in PBS buffer pH 7.4 with 1 mM Gly-Gly; 37° C.
Calcein assay: In a 96-well plate 12.5 μM prodrug or DTC chelator was dissolved in PBS (pH=7.4) from a 20 mM stock solution in DMSO. To each well Calcein (Cu) was added to reach a final concentration of 1 μM. The fluorescence of calcein was measured using a plate reader with λex=485 nm and λem=535 nm. After measuring the initial fluorescence, Gly-Gly and GGT were added in each well to make up to a final concentration of 1 mM and 20 U/L respectively. The plate was scanned at various time points to observe prodrug turnover via the development of a fluorescent signal caused by Cu removal from Calcein. The fluorescence emission was plotted as percentage with fluorescence of 1 μM Calcein in PBS as 100% and 1 μM (Cu)Calcein as 0%. The experiment was repeated in triplicate and standard deviations are represented as error bars.

The test system of data set [4] is PWR-1E cells. Briefly: cells. The class given is cell-based, human. The following applies: PWR-1E, PWR-1E; for IC50: 1 μM CuSO4, read-out: IC50 with 1 μM CuSO4. Here is the method:
(§2) Antiproliferation assay: To determine the amount of Cu(II) required for cell studies a checkerboard assay was performed by varying the prodrug or drug concentration and Cu(II) concentration. 22RV1, LNCaP, PC3, MCF-7, and PWR-1E (5,000 cells/well) were seeded in 96-well plates with regular media (22Rv1, LNCaP, and PC-3 in RPMI with 10% FBS; MCF-7 in DMEM with 10% FBS; PWR-1E in Keratinocyte-SFM) and let adhere for 24 h. The following day, the media was replaced with serum free media and cells were treated as indicated for an additional 24 h or 72 h. Cell proliferation was measured using a fluorometric resazurin reduction method. 20 μL of 700 μM Resazurin (Sigma R7017) was added in each well and incubated at 37° C. for 2 h. Fluorescence at 580 nm was measured by exciting at 555 nm with a plate reader. Each experiment was performed in triplicate, and the experiments were repeated three times. Viability vs drug concentration plot from a representative experiment are shown with standard deviation from the experiment as error bar. The error bar in IC50 values represents standard deviation from three different experiments.

Data set [5] concerns MCF-7 cells. The data set is described as follows: cells. The data set is classed as cell-based, human. The following applies: Homo sapiens, MCF7, MCF-7, 1 μM CuSO4, read-out: IC50 with 1 μM CuSO4. Here is the method: as §2
For data set [6], the system named is 22Rv1 cells. Briefly: cells. The class given is cell-based, human. The following applies: for IC50: Homo sapiens, 22Rv1, 1 μM CuSO4. The protocol:
as §2

Data set [7] has as its target T1, GGT. The data set is described as follows: GGT enzyme cleavage assay (LC/MS). The class given is biochemical. The following applies: 100 μM, 100 U/L GGT, 15 min, then 500 μM CuSO4. Here is the method: GGT Enzyme cleavage assay: In order to detect DTC liberated from prodrug by reactivity with GGT, 100 μM Glu-DTC was exposed to 100 U/L GGT in the presence of 1 mM Gly-Gly (PBS; pH 7.4; 37° C.). After 15 min, 500 μM CuSO4 was added to the vial, mixed well, then analyzed by LC/MS using an H2O: acetonitrile gradient for 25 min starting with 95% H2O:acetonitrile to 5% H2O:acetonitrile. A peak eluting at 12 min was observed corresponding to Glu-DTC as detected by MS, while a second peak eluting at 22 min corresponded to Cu(DTC)2 as detected by MS.

Data set [8] concerns PWR-1E cells. The data set is described as follows: Glu-DTC cleavage in cell culture, PWR-1E. The class given is cell-based, human. The following applies: GGT(−), 100 μM, 24 h. The protocol: as §1

“Also recorded” adds a separate entry of the source. Where two headings read alike, the source gives them in different places.

T1 sequence (P19440 whole entry, species assumed): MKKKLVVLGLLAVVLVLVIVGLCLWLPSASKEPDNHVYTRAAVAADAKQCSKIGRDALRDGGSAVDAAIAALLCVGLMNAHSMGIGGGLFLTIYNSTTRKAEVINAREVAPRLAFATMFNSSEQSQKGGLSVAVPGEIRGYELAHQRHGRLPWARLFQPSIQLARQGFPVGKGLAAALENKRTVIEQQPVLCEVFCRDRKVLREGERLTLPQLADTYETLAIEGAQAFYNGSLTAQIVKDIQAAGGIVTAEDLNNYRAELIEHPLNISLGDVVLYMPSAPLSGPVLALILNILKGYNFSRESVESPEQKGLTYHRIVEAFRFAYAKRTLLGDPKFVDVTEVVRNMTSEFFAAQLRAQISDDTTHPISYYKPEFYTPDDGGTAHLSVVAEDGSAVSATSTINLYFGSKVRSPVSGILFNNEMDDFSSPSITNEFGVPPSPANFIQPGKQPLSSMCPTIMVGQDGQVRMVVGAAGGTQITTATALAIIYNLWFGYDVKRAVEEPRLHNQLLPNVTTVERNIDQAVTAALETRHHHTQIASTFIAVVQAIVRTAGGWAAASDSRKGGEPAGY

For orientation: Ki means a dissociation constant, usually derived from enzyme kinetics or from competition with a known ligand. A higher Ki goes with lower affinity. By IC50 is commonly meant the point on the concentration scale where inhibition reaches its midpoint. In data set [1], `CCN(CC)C(=S)SCc1ccc(NC(=O)CC[C@H](N)C(=O)O)cc1` [Glu-DTC] displayed an inhibition constant Ki of 23 ± 5 µM. Besides, the “level of intact Glu-DTC in supernatant” value in data set [2] (22Rv1, 24 h, 1 mM GlyGly) was “significant loss of detectable Glu-DTC; also recorded: depletion was observed”; in data set [8], “unchanged”. Further, the “stability time with GGT inhibitor Acivicin” value in data set [2] (22Rv1, co-exposure with Acivicin) is reported as “at least 24 h”. Moreover, the “level of intact Glu-DTC in supernatant with Acivicin” value in data set [2] (22Rv1 treated with GGT-inhibitor Acivicin, 24 h) is listed as “unchanged”. Further, the “calcein fluorescence after exposure to GGT enzyme” value in data set [3] is given as “recovery of calcein fluorescence over time”. Moreover, the IC50 in data set [4] (Homo sapiens, 24 h, 24 h) is over 15000 nM; in data set [4] (Homo sapiens, 72 h, 72 h), 1500 nM; in data set [4] (24 h) it was 16800 ± 4400 nM; in data set [4] (72 h), 1550 ± 20 nM; in data set [5] (24 h), 1700 ± 100 nM; in data set [5] (72 h) it was 480 ± 40 nM. Further, the IC50 in data set [6] (24 h, read-out: IC50) worked out at 800 nM; in data set [6] (24 h, read-out: IC50 with 1 μM CuSO4), 760 ± 90 nM; in data set [6] (72 h, read-out: IC50 with 1 μM CuSO4), 290 ± 110 nM; in data set [6] (72 h continuous exposure, read-out: IC50) it was 300 nM. Besides, in data set [4] (initial experiments, within the tested concentration of 10 μM), the toxicity entry was “did not show much toxicity”. Besides, the “Cu(II) added to the growth medium required for antiproliferative activity” value in data set [6] (checkerboard pilot studies in 22Rv1 cells) turned out to be 300 nM. Also, the “prodrug cleavage and Cu(DTC)2 formation by LC/MS” value in data set [7] is “decrease in Glu-DTC peak and formation of Cu(DTC)2”.
